The results in this text go back to US9266832B2, “Compounds for the treatment of neurodegenerative diseases” (Katholieke Universiteit Levun, priority 2010, dated 2016).

This assay has as its system M17-TAU P301L cells. Kind of assay: Tau-induced toxicity experiment: LDH leakage of retinoic acid incubated M17-TAU P301L cells. Conditions: Homo sapiens, Neuroblastoma cell, 168 h; reduction of LDH activity of retinoic acid incubated M17-TAU P301L neuroblastoma cells, 7 days. It is filed as cell-based. From the text:
A TAU expression plasmid was constructed by sub-cloning the cDNA of human TAU-P301L (encoding for TAU with proline 301 substituted by a leucine residue) into mammalian expression vector pcDNA3.1 resulting in plasmid pcDNA3.1-TAU P301L. Plasmids pcDNA3.1 and pcDNA3.1-TAU P301L were transfected to human neuroblastoma cells ([…]; ATCC No. CRL-2267) and independent clonal lines with the plasmids stably integrated into the genome were selected. […] Expression of the TAU P301L genes in the cell lines was confirmed by Western analysis.
In degenerated or dead cells lactate dehydrogenase (LDH) is leaked out of the cells into the extracellular environment due to a loss of plasma-membrane integrity. This principle was used to determine cytotoxicity by quantifying the level of leaked LDH into the growth medium.
The detailed method for determining TAU cytotoxicity was as follows: From appropriate precultures of M17-3.1 and M17-TAU(P301L) cells were seeded at 2500 cells/cm2 in Optimem Reduced Serum without phenol red (Gibco, Cat. 31985-047) supplemented with 1% fetal calf serum, 1 mM sodium pyruvate, 1× non-essential amino acids, 500 μg/ml G418 0.5× antibiotic/antimycotic. After 3 h of incubation at 37° C./5% CO2 1 volume of Optimem Reduced Serum (same as described above; except without fetal calf serum) supplemented with 2.5 μM retinoic acid (RA) was added. The cells were further incubated for 7 days. Subsequently, LDH activity was determined using Promega Cytotox 96 Non-Radioactive cytotoxicity assay, (Cat. G1780) according the supplier's instructions.
The M17-TAU P301L cell line made it possible to assess the ability of novel compounds to counteract TAU cytotoxicity. […] These measurements were used to calculate EC50 values of table 2.

As usually defined, the EC50 is the concentration at which the effect is half-maximal. On to `O=C(NCCc1c[nH]c2ccc(Cl)cc12)c1ccc(Cn2ccnc2)cc1` [Cpd012, 4-((1H-imidazol-1-yl)methyl)-N-(2-(5-chloro-1H-indol-3-yl)ethyl)benzamide], for which the EC50 was 486 nM.

Compound `O=C(NCCc1c[nH]c2ccc(Cl)cc12)c1cccc(Cc2cc(F)cc(F)c2)c1` [Cpd065, N-(2-(5-chloro-1H-indol-3-yl)ethyl)-3-(3,5-difluorobenzyl)benzamide] came in with an EC50 of 174 nM.

On to `O=C(NCCc1c[nH]c2ccc(Cl)cc12)c1cccc(Cc2ccccc2)c1` [Cpd010, 3-benzyl-N-(2-(5-chloro-1H-indol-3-yl)ethyl)benzamide], for which the EC50 came to 78 nM.

For the compound `Cc1cccc(Cc2ccc(C(=O)NCCc3c[nH]c4ccc(Cl)cc34)cc2)c1` [Cpd036, N-(2-(5-chloro-1H-indol-3-yl)ethyl)-4-(3-methylbenzyl)benzamide], it took 40 nM to reach a half-maximal effect (EC50). Compared with the last compound, the EC50 is about 1.9-fold lower.

As to `O=C(NCCc1c[nH]c2ccc(Cl)cc12)c1ccc(CNCc2cccs2)cc1` [Cpd026, N-(2-(5-chloro-1H-indol-3-yl)ethyl)-4-((thiophen-2-ylmethylamino)methyl)benzamide], the EC50 turned out to be 83 nM.

The compound `O=C(NCCc1c[nH]c2ccc(Cl)cc12)c1cccc(CNC2CCCCC2)c1` [Cpd024, N-(2-(5-chloro-1H-indol-3-yl)ethyl)-3-((cyclohexylamino)methyl)benzamide] registered a half-maximal effective concentration (EC50) of 724 nM.

`N#Cc1ccc(Cc2ccc(C(=O)NCCc3c[nH]c4ccc(Cl)cc34)cc2)cc1` [Cpd031, N-(2-(5-chloro-1H-indol-3-yl)ethyl)-4-(4-cyanobenzyl)benzamide] had an EC50 of 16 nM.

For `O=C(NCCc1c[nH]c2ccc(Cl)cc12)c1ccccc1Cc1ccccc1` [Cpd009, 2-benzyl-N-(2-(5-chloro-1H-indol-3-yl)ethyl)benzamide], the EC50 stood at 240 nM.

For the compound `O=C(NCCc1c[nH]c2ccc(Cl)cc12)c1ccc(Cn2cccn2)cc1` [Cpd011, 4-((1H-pyrazol-1-yl)methyl)-N-(2-(5-chloro-1H-indol-3-yl)ethyl)benzamide], the EC50 turned out to be 173 nM.

In turn, `Cc1[nH]c2ccc(Cl)cc2c1CCNC(=O)c1ccc(Cc2cccc(F)c2)cc1` [Cpd098, N-(2-(5-chloro-2-methyl-1H-indol-3-yl)ethyl)-4-(3-fluorobenzyl)benzamide] returned an EC50 of 535 nM.

`O=C(NCCc1c[nH]c2ccc(Cl)cc12)c1cccc(Cc2ccccc2F)c1` [Cpd054, N-(2-(5-chloro-1H-indol-3-yl)ethyl)-3-(2-fluorobenzyl)benzamide] displayed an EC50 of 42 nM.

As for `Cc1ccc2[nH]cc(CCNC(=O)c3ccc(Cc4cccc(F)c4)cc3)c2c1` [Cpd084, 4-(3-fluorobenzyl)-N-(2-(5-methyl-1H-indol-3-yl)ethyl)benzamide], the EC50 is 26 nM. This EC50 is about 1.6-fold lower than that of the compound before.

Compound `O=C(NCCc1c[nH]c2ccc(Cl)cc12)c1ccc(CNCc2ccccc2)cc1` [Cpd019, 4-((benzylamino)methyl)-N-(2-(5-chloro-1H-indol-3-yl)ethyl)benzamide] had an EC50 of 103 nM.

`O=C(NCCc1c[nH]c2ccc(Cl)cc12)c1ccc(Cc2cc(F)cc(F)c2)cc1` [Cpd067, N-(2-(5-chloro-1H-indol-3-yl)ethyl)-4-(3,5-difluorobenzyl)benzamide] registered an EC50 of 111 nM.

Regarding `O=C(NCCc1c[nH]c2ccc(Cl)cc12)c1ccc(Cc2cccs2)cc1` [Cpd079, N-(2-(5-chloro-1H-indol-3-yl)ethyl)-4-(thiophen-2-ylmethyl)benzamide], a half-maximal effect (EC50) was put at 81 nM. The EC50 values of the last two compounds are within 1.5-fold of each other.

Regarding `O=C(NCCc1c[nH]c2ccc(Cl)cc12)c1cccc(Cc2cccc(Cl)c2)c1` [Cpd055, N-(2-(5-chloro-1H-indol-3-yl)ethyl)-3-(3-chlorobenzyl)benzamide], a half-maximal effect (EC50) was put at 36 nM.

As for `O=C(NCCc1c[nH]c2ccc(Cl)cc12)c1cccc(Cc2cncc(F)c2)c1` [Cpd069, N-(2-(5-chloro-1H-indol-3-yl)ethyl)-3-((5-fluoropyridin-3-yl)methyl)benzamide], the EC50 was 90 nM.

With `O=C(NCCc1c[nH]c2ccc(Cl)cc12)c1ccc(Cc2cccc(F)c2)cn1` [Cpd107, N-(2-(5-chloro-1H-indol-3-yl)ethyl)-5-(3-fluorobenzyl)picolinamide], it took 26 nM to reach a half-maximal effect (EC50).

Turning to `O=C(NCCc1c[nH]c2ccc(Cl)cc12)c1ccc(Nc2cccc(F)c2)cc1` [Cpd106, N-(2-(5-chloro-1H-indol-3-yl)ethyl)-4-(3-fluorophenylamino)benzamide], the EC50 was 82 nM.

As to `N#Cc1ccc(Cc2cccc(C(=O)NCCc3c[nH]c4ccc(Cl)cc34)c2)cc1` [Cpd037, N-(2-(5-chloro-1H-indol-3-yl)ethyl)-3-(4-cyanobenzyl)benzamide], the EC50 is 32 nM.

The compound `O=C(NCCc1c[nH]c2ccc(Cl)cc12)c1ccc(Cc2ccncc2)cc1` [Cpd086, N-(2-(5-chloro-1H-indol-3-yl)ethyl)-4-(pyridin-4-ylmethyl)benzamide] displayed an EC50 of 151 nM.

The compound `Cc1ccccc1Cc1ccc(C(=O)NCCc2c[nH]c3ccc(Cl)cc23)cc1` [Cpd028, N-(2-(5-chloro-1H-indol-3-yl)ethyl)-4-(2-methylbenzyl)benzamide] had an EC50 of 370 nM. Against the preceding compound, the EC50 is about 2.5-fold higher.

Turning to `COc1ccc(Cc2ccc(C(=O)NCCc3c[nH]c4ccc(Cl)cc34)cc2)cc1` [Cpd056, N-(2-(5-chloro-1H-indol-3-yl)ethyl)-4-(4-methoxybenzyl)benzamide], the EC50 turned out to be 70 nM.

For `O=C(NCCc1c[nH]c2ccc(C(F)(F)F)cc12)c1ccc(Cc2cccc(F)c2)cc1` [Cpd108, 4-(3-fluorobenzyl)-N-(2-(5-(trifluoromethyl)-1H-indol-3-yl)ethyl)benzamide], a half-maximal response (EC50) required 320 nM.

The compound `COc1cccc(Oc2cccc(C(=O)NCCc3c[nH]c4ccc(Cl)cc34)c2)c1` [Cpd089, N-(2-(5-chloro-1H-indol-3-yl)ethyl)-3-(3-methoxyphenoxy)benzamide] gave an EC50 of 98 nM. Against the preceding compound, the EC50 is about 3.3-fold lower.

The compound `N#Cc1cccc(Cc2cccc(C(=O)NCCc3c[nH]c4ccc(Cl)cc34)c2)c1` [Cpd038, N-(2-(5-chloro-1H-indol-3-yl)ethyl)-3-(3-cyanobenzyl)benzamide] showed an EC50 of 31 nM. This EC50 lies about 3.2-fold lower than the previous one.

On to `COc1cccc(Cc2cccc(C(=O)NCCc3c[nH]c4ccc(Cl)cc34)c2)c1` [Cpd058, N-(2-(5-chloro-1H-indol-3-yl)ethyl)-3-(3-methoxybenzyl)benzamide], for which the EC50 was 125 nM.

In the case of `O=C(NCCc1c[nH]c2ccc(Cl)cc12)c1cccc(Cc2ccc(C(F)(F)F)cc2)c1` [Cpd040, N-(2-(5-chloro-1H-indol-3-yl)ethyl)-3-(4-(trifluoromethyl)benzyl)benzamide], it took 103 nM to reach a half-maximal effect (EC50).

For `O=C(NCCc1c[nH]c2ccc(-c3ccccc3)cc12)c1ccc(Cc2cccc(F)c2)cc1` [Cpd111, 4-(3-fluorobenzyl)-N-(2-(5-phenyl-1H-indol-3-yl)ethyl)benzamide], the EC50 came to 537 nM.

`O=C(NCCc1c[nH]c2ncc(Cl)cc12)c1ccc(Cc2cccc(F)c2)cc1` [Cpd101, N-(2-(5-chloro-1H-pyrrolo[2,3-b]pyridin-3-yl)ethyl)-4-(3-fluorobenzyl)benzamide] displayed an EC50 of 1050 nM. Against the preceding compound, the EC50 is about 2-fold higher.

As for `N#Cc1ccccc1Cc1ccc(C(=O)NCCc2c[nH]c3ccc(Cl)cc23)cc1` [Cpd059, N-(2-(5-chloro-1H-indol-3-yl)ethyl)-4-(2-cyanobenzyl)benzamide], a half-maximal response (EC50) required 68 nM. Against the preceding compound, the EC50 is about 15-fold lower.

Turning to `O=C(NCCc1c[nH]c2ccc(Cl)cc12)c1cccc(Cc2cccc(F)c2)n1` [Cpd117, N-(2-(5-chloro-1H-indol-3-yl)ethyl)-6-(3-fluorobenzyl)picolinamide], it took 109 nM to reach a half-maximal effect (EC50).

The compound `O=C(NCCc1c[nH]c2ccc(Cl)cc12)c1ccc(Oc2ccccc2)cc1` [Cpd093, N-(2-(5-chloro-1H-indol-3-yl)ethyl)-4-phenoxybenzamide] had an EC50 of 293 nM.

Regarding `O=C(NCCc1c[nH]c2ccc(Cl)cc12)c1ccc(Cc2ccc(F)cc2)cc1` [Cpd061, N-(2-(5-chloro-1H-indol-3-yl)ethyl)-4-(4-fluorobenzyl)benzamide], it took 86 nM to reach a half-maximal effect (EC50).

`O=C(NCCc1c[nH]c2ccc(Cl)cc12)c1ccc(Cc2ccoc2)cc1` [Cpd081, N-(2-(5-chloro-1H-indol-3-yl)ethyl)-4-(furan-3-ylmethyl)benzamide]: a half-maximal effect (EC50) was put at 23 nM.

The compound `O=C(NCCc1c[nH]c2ccc(Cl)cc12)c1cccc(Cc2cccs2)c1` [Cpd075, N-(2-(5-chloro-1H-indol-3-yl)ethyl)-3-(thiophen-2-ylmethyl)benzamide] gave an EC50 of 30 nM.

As to `O=C(NCCc1c[nH]c2ccc(Cl)cc12)c1cccc(Cc2ccoc2)c1` [Cpd083, N-(2-(5-chloro-1H-indol-3-yl)ethyl)-3-(furan-3-ylmethyl)benzamide], the EC50 turned out to be 56 nM.

In turn, `O=C(NCc1c[nH]c2ccc(Cl)cc12)c1ccc(Cc2cc(F)cc(F)c2)cc1` [Cpd073, N-((5-chloro-1H-indol-3-yl)methyl)-4-(3,5-difluorobenzyl)benzamide] returned an EC50 of 242 nM.

Turning to `O=C(NCCc1c[nH]c2ccc(Cl)cc12)c1ccc(Nc2ccccc2)cc1` [Cpd092, N-(2-(5-chloro-1H-indol-3-yl)ethyl)-4-(phenylamino)benzamide], the EC50 was determined as 76 nM.
